Biological target: T1, GRK2 (Homo sapiens, UniProt P25098)
T1 sequence (P25098 1-689): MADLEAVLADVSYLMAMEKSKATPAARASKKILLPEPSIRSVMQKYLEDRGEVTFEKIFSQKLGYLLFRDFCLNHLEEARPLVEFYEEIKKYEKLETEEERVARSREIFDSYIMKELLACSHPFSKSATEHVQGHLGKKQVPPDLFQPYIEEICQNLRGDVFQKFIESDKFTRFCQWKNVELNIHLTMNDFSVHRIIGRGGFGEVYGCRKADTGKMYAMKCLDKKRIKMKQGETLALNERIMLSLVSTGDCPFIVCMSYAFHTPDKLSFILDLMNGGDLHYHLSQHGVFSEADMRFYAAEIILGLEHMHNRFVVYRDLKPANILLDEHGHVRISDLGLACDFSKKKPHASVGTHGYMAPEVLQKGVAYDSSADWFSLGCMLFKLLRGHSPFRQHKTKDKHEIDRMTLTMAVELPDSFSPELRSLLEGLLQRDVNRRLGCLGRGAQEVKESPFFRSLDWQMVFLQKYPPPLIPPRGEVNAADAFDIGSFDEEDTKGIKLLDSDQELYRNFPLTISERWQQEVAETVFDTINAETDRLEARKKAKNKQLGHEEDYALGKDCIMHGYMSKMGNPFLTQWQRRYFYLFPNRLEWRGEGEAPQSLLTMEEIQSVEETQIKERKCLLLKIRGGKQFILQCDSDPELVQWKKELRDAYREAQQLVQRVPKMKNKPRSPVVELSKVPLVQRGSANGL
Experiment: In vitro tubulin phosphorylation assay with purified GRK2
Type: biochemical
Settings: 10 μM DFPQ, 60-minute time course, FIG. 3C
Procedure: FIGS. 3A-3D: DFPQ inhibits GRK-mediated phosphorylation of the β2AR. FIG. 3A: Representative time course of agonist promoted phosphorylation of the β2AR. […] Cells were lysed and the FLAG-β2AR was immunoprecipitated. Phosphorylation at […] and 356 was analyzed by western blot using a pSer^355/356 antibody while total β2AR was measured using a β2AR C-terminal antibody. The western blot is representative of at least 3 experiments and is quantified in FIG. 3B. FIG. 3C: […] FIG. 3D: Bar graphs represent pixel densitometry of radiolabeled tubulin at the 60 min timepoint from 4 experiments. […]® ADRB2 cells (DiscoveRx) were maintained with the AssayCompleteTM Cell Culture kit (DiscoveRx catalog #92-[…]). […] Cells were read every three minutes for 18 minutes on a PolarStar Optima plate reader (BMG) to establish peak signal. […] Luminescence was determined at room temperature (23-25° C.) on a PolarStar Optima plate reader (BMG). […] Relative assay bias was calculated from the ratio of normalized cAMP and arrestin recruitment responses. […] BRET was measured using a Tecan Infinite F500 microplate reader. […] Bound [35 S]GTPγS was collected by rapid filtration on GF/B filters, washed 4 times with 4 ml of cold GTPγS wash buffer and analyzed by liquid scintillation counting. […] Immunoprecipitated proteins were separated by SDS-PAGE and analyzed by western blot using a β2AR C-terminal tail or phospho-specific antibody. […]

In the case of `Fc1ccc(Nc2nc(NC3CCCCC3)c3ccccc3n2)cc1F` [DFPQ, N^4-cyclohexyl-N^2-(3,4-difluorophenyl)quinazoline-2,4-diamine], the “phosphorylation of tubulin by GRK2” value was “unaffected”.
